Our source for the EC50 and IC50 values is patent US20260355323A1, “CEREBLON-RECRUITING BCL-XL/BCL-2 DUAL DEGRADERS” (University of Florida Research Foundation, Incorporated, priority 2022, published 2026).

By EC50 is commonly meant the midpoint of the concentration-response curve.

One test deals with WI-38 NC. As to the kind of experiment: Senolytic activity, cell viability (PrestoBlue HS), WI-38 NC. The test is classed as cell-based. Conditions: Homo sapiens, 72 h. The method, then: WI-38 and HUVEC cells were incubated with increasing concentrations of degraders for 72 h. Cell viability was measured using PrestoBlue HS cell viability reagent.
For test [1], the system named is MOLT-4 acute lymphoblastic leukemia cells. As to the kind of experiment: Cell viability, tetrazolium-based MTS assay, MOLT-4. Conditions: Homo sapiens, MOLT-4, 48 h; read-out: Anti-Cancer Activity EC50 (48 hr), MOLT-4. The method, then: (§1) Acute lymphoblastic leukemia cells (MOLT-4 and RS4;11) were incubated with increasing concentrations of Bcl-xL/Bcl-2 degraders for 48 h. Cell viability was measured by tetrazolium-based MTS assay.

Test [2] concerns RS4;11 acute lymphoblastic leukemia cells. The experiment in a line: Cell viability, tetrazolium-based MTS assay, RS4;11. Conditions: Homo sapiens, RS4;11, 48 h, read-out: Anti-Cancer Activity EC50 (48 hr), RS4. The method, then: as §1

On to `C[C@@]1(CN2CCN(C(=O)CCCCCN3CCN(c4ccc5c(c4)CN(C4CCC(=O)NC4=O)C5=O)CC3)CC2)CCC(c2ccc(Cl)cc2)=C(CN2CCN(c3ccc(C(=O)NS(=O)(=O)c4ccc(N[C@H](CCN5CCCOCC5)CSc5ccccc5)c(S(=O)(=O)C(F)(F)F)c4)cc3)CC2)C1` (stereo partly drawn) [Compound 3, N-((4-(((R)-4-(1,4-oxazepan-4-yl)-1-(phenylthio)butan-2-yl)amino)-3-((trifluoromethyl)sulfonyl)phenyl)sulfonyl)-4-(4-(((4R)-4′-chloro-4-((4-(6-(4-(2-(2,6-dioxopiperidin-3-yl)-1-oxoisoindolin-5-yl)piperazin-1-yl)hexanoyl)piperazin-1-yl)methyl)-4-methyl-3,4,5,6-tetrahydro-[1,1′-biphenyl]-2-yl)methyl)piperazin-1-yl)benzamide], for which the EC50 was > 10000 nM in the test on WI-38 NC, < 1 nM in test [1] and < 1 nM in test [2].

As to `CC1(CN2CCN(c3ncc(C(=O)NCCNc4cccc5c4C(=O)N(C4CCC(=O)NC4=O)C5=O)cn3)CC2)CCC(c2ccc(Cl)cc2)=C(CN2CCN(c3ccc(C(=O)NS(=O)(=O)c4ccc(N[C@H](CCN5CCOCC5)CSc5ccccc5)c(S(=O)(=O)C(F)(F)F)c4)cc3)CC2)C1` (stereo partly drawn) [Compound 19, 2-(4-((4′-chloro-4-methyl-6-((4-(4-(((4-(((R)-4-morpholino-1-(phenylthio)butan-2-yl)amino)-3-((trifluoromethyl)sulfonyl)phenyl)sulfonyl)carbamoyl)phenyl)piperazin-1-yl)methyl)-2,3,4,5-tetrahydro-[1,1′-biphenyl]-4-yl)methyl)piperazin-1-yl)-N-(2-((2-(2,6-dioxopiperidin-3-yl)-1,3-dioxoisoindolin-4-yl)amino)ethyl)pyrimidine-5-carboxamide], the EC50 fell in the range of 1 to 10 nM in test [1] and 10 to 100 nM in test [2].

With `CC1(CN2CCN(c3ncc(C(=O)NCCCCNc4cccc5c4C(=O)N(C4CCC(=O)NC4=O)C5=O)cn3)CC2)CCC(c2ccc(Cl)cc2)=C(CN2CCN(c3ccc(C(=O)NS(=O)(=O)c4ccc(N[C@H](CCN5CCOCC5)CSc5ccccc5)c(S(=O)(=O)C(F)(F)F)c4)cc3)CC2)C1` (stereo partly drawn) [Compound 20, 2-(4-((4′-chloro-4-methyl-6-((4-(4-(((4-(((R)-4-morpholino-1-(phenylthio)butan-2-yl)amino)-3-((trifluoromethyl)sulfonyl)phenyl)sulfonyl)carbamoyl)phenyl)piperazin-1-yl)methyl)-2,3,4,5-tetrahydro-[1,1′-biphenyl]-4-yl)methyl)piperazin-1-yl)-N-(4-((2-(2,6-dioxopiperidin-3-yl)-1,3-dioxoisoindolin-4-yl)amino)butyl)pyrimidine-5-carboxamide], the EC50 in test [1] lay in the range of 1 to 10 nM; in test [2], 10 to 100 nM.

For `CC1(CN2CCN(c3ncc(C(=O)NCCCCCCNc4cccc5c4C(=O)N(C4CCC(=O)NC4=O)C5=O)cn3)CC2)CCC(c2ccc(Cl)cc2)=C(CN2CCN(c3ccc(C(=O)NS(=O)(=O)c4ccc(N[C@H](CCN5CCOCC5)CSc5ccccc5)c(S(=O)(=O)C(F)(F)F)c4)cc3)CC2)C1` (stereo partly drawn) [Compound 21, 2-(4-((4′-chloro-4-methyl-6-((4-(4-(((4-(((R)-4-morpholino-1-(phenylthio)butan-2-yl)amino)-3-((trifluoromethyl)sulfonyl)phenyl)sulfonyl)carbamoyl)phenyl)piperazin-1-yl)methyl)-2,3,4,5-tetrahydro-[1,1′-biphenyl]-4-yl)methyl)piperazin-1-yl)-N-(6-((2-(2,6-dioxopiperidin-3-yl)-1,3-dioxoisoindolin-4-yl)amino)hexyl)pyrimidine-5-carboxamide], the EC50 in test [1] lay within 10 to 100 nM. Also, the IC50 in test [2] was 10000 to 100000 nM.

Turning to `CC1(CN2CCN(c3ccc(OCCCCCN4CCN(c5cccc6c5C(=O)N(C5CCC(=O)NC5=O)C6=O)CC4)cn3)CC2)CCC(c2ccc(Cl)cc2)=C(CN2CCN(c3ccc(C(=O)NS(=O)(=O)c4ccc(N[C@H](CCN5CCOCC5)CSc5ccccc5)c(S(=O)(=O)C(F)(F)F)c4)cc3)CC2)C1` (stereo partly drawn) [Compound 22, 4-(4-((4′-chloro-4-((4-(5-((5-(4-(2-(2,6-dioxopiperidin-3-yl)-1,3-dioxoisoindolin-4-yl)piperazin-1-yl)pentyl)oxy)pyridin-2-yl)piperazin-1-yl)methyl)-4-methyl-3,4,5,6-tetrahydro-[1,1′-biphenyl]-2-yl)methyl)piperazin-1-yl)-N-((4-(((R)-4-morpholino-1-(phenylthio)butan-2-yl)amino)-3-22 ((trifluoromethyl)sulfonyl)phenyl)sulfonyl)benzamide], the EC50 in test [1] and in test [2] was 10 to 100 nM in each case.

`CC1(CN2CCN(c3ccc(C#CCCCN4CCN(c5cccc6c5C(=O)N(C5CCC(=O)NC5=O)C6=O)CC4)cn3)CC2)CCC(c2ccc(Cl)cc2)=C(CN2CCN(c3ccc(C(=O)NS(=O)(=O)c4ccc(N[C@H](CCN5CCOCC5)CSc5ccccc5)c(S(=O)(=O)C(F)(F)F)c4)cc3)CC2)C1` (stereo partly drawn) [Compound 23, 4-(4-((4′-chloro-4-((4-(5-(5-(4-(2-(2,6-dioxopiperidin-3-yl)-1,3-26 dioxoisoindolin-4-yl)piperazin-1-yl)pent-1-yn-1-yl)pyridin-2-yl)piperazin-1-yl)methyl)-4-methyl-3,4,5,6-tetrahydro-[1,1′-biphenyl]-2-yl)methyl)piperazin-1-yl)-N-((4-(((R)-4-morpholino-1-(phenylthio)butan-2-yl)amino)-3-28 ((trifluoromethyl)sulfonyl)phenyl)sulfonyl)benzamide]: the results for the EC50 in test [1] and in test [2] were 10000 to 100000 nM and 10 to 100 nM, respectively.

`CC1(CN2CCCN(c3ccc4c(c3)CN(C3CCC(=O)NC3=O)C4=O)CC2)CCN(C[C@]2(C)CCC(c3ccc(Cl)cc3)=C(CN3CCN(c4ccc(C(=O)NS(=O)(=O)c5ccc(N[C@H](CCN6CCCOCC6)CSc6ccccc6)c(S(=O)(=O)C(F)(F)F)c5)cc4)CC3)C2)CC1` (stereo partly drawn) [Compound 136, N-((4-(((R)-4-(1,4-oxazepan-4-yl)-1-(phenylthio)butan-2-yl)amino)-3-((trifluoromethyl)sulfonyl)phenyl)sulfonyl)-4-(4-(((4R)-4′-chloro-4-((4-((4-(2-(2,6-dioxopiperidin-3-yl)-1-oxoisoindolin-5-yl)-1,4-diazepan-1-yl)methyl)-4-methylpiperidin-1-yl)methyl)-4-methyl-3,4,5,6-tetrahydro-[1,1′-biphenyl]-2-yl)methyl)piperazin-1-yl)benzamide]: the EC50 in test [1] and in test [2] was < 1 nM throughout.

Consider `C[C@@]1(CN2CCC(CN3CCN(c4ccc(C(=O)N[C@H]5CCC(=O)NC5=O)c(F)c4)CC3)CC2)CCC(c2ccc(Cl)cc2)=C(CN2CCN(c3ccc(C(=O)NS(=O)(=O)c4ccc(N[C@H](CCN5CCCOCC5)CSc5ccccc5)c(S(=O)(=O)C(F)(F)F)c4)cc3)CC2)C1` [Compound 137, 4-(4-((1-(((R)-6-((4-(4-(((4-(((R)-4-(1,4-oxazepan-4-yl)-1-(phenylthio)butan-2-yl)amino)-3-((trifluoromethyl)sulfonyl)phenyl)sulfonyl)carbamoyl)phenyl)piperazin-1-yl)methyl)-4′-chloro-4-methyl-2,3,4,5-tetrahydro-[1,1′-biphenyl]-4-yl)methyl)piperidin-4-yl)methyl)piperazin-1-yl)-N-((S)-2,6-dioxopiperidin-3-yl)-2-fluorobenzamide], for which the EC50 in test [1] and in test [2] was 1 to 10 nM throughout.

As to `C[C@@]1(CN2CCC(CN3CCN(c4ccc(C(=O)N[C@@H]5CCC(=O)NC5=O)c(F)c4)CC3)CC2)CCC(c2ccc(Cl)cc2)=C(CN2CCN(c3ccc(C(=O)NS(=O)(=O)c4ccc(N[C@H](CCN5CCCOCC5)CSc5ccccc5)c(S(=O)(=O)C(F)(F)F)c4)cc3)CC2)C1` [Compound 138, 4-(4-((1-(((R)-6-((4-(4-(((4-(((R)-4-(1,4-oxazepan-4-yl)-1-(phenylthio)butan-2-yl)amino)-3-((trifluoromethyl)sulfonyl)phenyl)sulfonyl)carbamoyl)phenyl)piperazin-1-yl)methyl)-4′-chloro-4-methyl-2,3,4,5-tetrahydro-[1,1′-biphenyl]-4-yl)methyl)piperidin-4-yl)methyl)piperazin-1-yl)-N-((R)-2,6-dioxopiperidin-3-yl)-2-fluorobenzamide], the EC50 in test [1] and in test [2] was 1 to 10 nM each time.

For the molecule `C[C@@]1(CN2CCC(CN3CCN(c4ccc(C(=O)N[C@H]5CCC(=O)NC5=O)cc4)CC3)CC2)CCC(c2ccc(Cl)cc2)=C(CN2CCN(c3ccc(C(=O)NS(=O)(=O)c4ccc(N[C@H](CCN5CCCOCC5)CSc5ccccc5)c(S(=O)(=O)C(F)(F)F)c4)cc3)CC2)C1` [Compound 139, N-((4-(((R)-4-(1,4-oxazepan-4-yl)-1-(phenylthio)butan-2-yl)amino)-3-((trifluoromethyl)sulfonyl)phenyl)sulfonyl)-4-(4-(((R)-4′-chloro-4-((4-((4-(4-(((S)-2,6-dioxopiperidin-3-yl)carbamoyl)phenyl)piperazin-1-yl)methyl)piperidin-1-yl)methyl)-4-methyl-3,4,5,6-tetrahydro-[1,1′-biphenyl]-2-yl)methyl)piperazin-1-yl)benzamide], the EC50 in test [1] and in test [2] was 1 to 10 nM in each case.

As to `C[C@@]1(CN2CCN(c3ccc(NC4CCC(=O)NC4=O)cc3F)CC2)CCC(c2ccc(Cl)cc2)=C(CN2CCN(c3ccc(C(=O)NS(=O)(=O)c4ccc(N[C@H](CCN5CCCOCC5)CSc5ccccc5)c(S(=O)(=O)C(F)(F)F)c4)cc3)CC2)C1` (stereo partly drawn) [Compound 140, N-((4-(((R)-4-(1,4-oxazepan-4-yl)-1-(phenylthio)butan-2-yl)amino)-3-((trifluoromethyl)sulfonyl)phenyl)sulfonyl)-4-(4-(((4R)-4′-chloro-4-((4-(4-((2,6-dioxopiperidin-3-yl)amino)-2-fluorophenyl)piperazin-1-yl)methyl)-4-methyl-3,4,5,6-tetrahydro-[1,1′-biphenyl]-2-yl)methyl)piperazin-1-yl)benzamide], the EC50 was 1 to 10 nM in test [1] and 10 to 100 nM in test [2].
